Data on two compounds can be found in patent US10377902B2, “Crystallized red pigment, method of producing a recrystallized red pigment and a method for improving the appearance of or preventing wrinkles” (priority 2013, dated 2019).

In data set [1] the test system is HUVEC (human umbilical vein endothelial cells). Put plainly: Cell proliferation, VEGF-Induced (307900), antagonist mode. The conditions noted are these: concurrent batch 305353, antagonist, read-out: Concurrent IC50/EC50. Format: cell-based.
Protocol: Measurement of proliferation inhibition activity of VEGF-Induced cell of vascular endothelial cells by purified red pigment from Saw palmetto.
The final concentration in the test was given as 100 μg/mL and 10 μg/mL.
HUVEC cells were incubated in air atmosphere of 5% CO2 at 37° C. The culture medium used was Endothelial Cell Growth Medium with 10% fetal bovine serum (FBS). The medium for assay was
M199 medium supplemented with 10% FBS and 10 μg/mL of Heparin.
Aliquots of HUVEC (1.1×10^5 cells/ well) were pre-seeded in the 96-well TC plate in an incubator at 5% CO2, 37° C. Test compound solution or vehicle (DMSO) was then added per well and incubated at 5% CO2, 37° C. for 20 minutes. Thereafter, VEGF165 (0.2 nM) was added and incubated for 48 hours. 48 hours later, the cells were washed with HBSS once. Then 5 μg/mL of the fluorescence reagent, CalceinAM dye (BD Biosciences, USA) was added and incubated for another 50 minutes. After incubation, fluorescence intensity was detected by Micro plate reader. More than 50% of suppression for VEGF165 induced proliferation was indicated for the significant antagonistic activity of the test reagent.
The next data set relates to HuVECs. Put plainly: Tube formation of HuVECs in the presence of VEGF. The conditions noted are these: 30 μM, not showing cytotoxicity. The data set is classed as cell-based, human. The protocol: In turn, whether NYG-1 can suppress angiogenesis ability of HuVECs was tested.
In the next data set the test system is HuVEC cells. Put plainly: Cytotoxicity / growth of vascular endothelial cells. Format: cell-based, human. The conditions noted are these: a few hundred micro mole level.
For data set [2], the system named is Human umbilical vein endothelial cells (HUVEC). Put plainly: Angiogenesis, Tube Formation (Assay#368000): HUVEC tube network on Matrigel. Format: cell-based. The protocol:
Following biological test results were conducted by Ricerca Bioscience, LLC (http://www.Ricerca.com.) under a contract (Assay#368000, Tumor, Angiogenesis, Tube Formation) with the crystalized red pigment prepared in Example 1.
Human umbilical vein endothelial cells (HUVEC) differentiate to capillary-like structures and form vessel network on Matrigel in the presence of endothelial cell growth supplements. The anti-angiogenic activity of a test compound can be assessed by observing continuity of vessel network compared with untreated control. Test compound (crystallized red pigment prepared in […]) was tested for an effect on anti-angiogenesis at five final concentrations of 100, 10, 1, 0.1 and 0.01 μg/mL.
The crystalized red pigment prepared in Example 1 was dissolved in 100% dimethyl sulfoxide (DMSO) and then diluted with sterile distilled water to obtain solutions of […] in 40% DMSO. The solutions were diluted 100-fold with culture medium to generate final concentrations of 0.01, 0.1, 1, 10 and 100 μg/mL.
HUVEC was purchased from American Type Culture Collection (ATCC CRL-1730). HUVEC cells were incubated in 5% CO2 atmosphere of at 37° C. The culture medium used was Endothelial Cell Growth Medium supplemented with 10v/v % fetal bovine serum and 1% antifungal antibiotic.
Matrigel matrix was thawed, kept on ice at 4° C. and 50μL of the matrix was transferred to each well of a 96-microwell culture plate. The plate was incubated at 37° C. for at least one hour to allow the matrix solution to solidify before treatment.
Aliquots of […] of HUVEC suspension (about 1.5×10^4 cells/well) were placed in the 96-well matrigel plate. Two microliters per well of test compound solution or vehicle (40% DMSO) was then added and incubated at 5% CO2, 37° C. for 18 hours (in duplicate). The final concentration of DMSO was 0.4%. The test compound was evaluated at concentrations of 100, 10, 1, 0.1 and 0.01 μg/mL. At the end of incubation, a tube network formed by endothelial cell in each wells was evaluated by photomicroscopy (magnification of 40×) and photographed. The total length of tube network was measured from each photograph (FIG. 1).
The reduction of the total length of tube network in test compound treatment to the total length of tube network in vehicle treatment control indicates anti-angiogenic activity. The minimum inhibitory concentration (MIC) and 50% inhibition concentration (IC50) were determined to assess effect of the test substance on anti-angiogenesis.

≈ marks a conversion by molar mass, not a printed value. Entries after “also recorded” stand apart in the source; their conditions may differ. Marks after values point to notes of the source that are not given here.

Description for HuVEC cells: The growth activity of cells under exposure to NYG-1 was detected by using HuVEC cells which is an in vitro cell model. […] Further, suramin was used as a positive control.

For the compound `Cc1cc(C)c(/C=C2\C(=O)Nc3ccccc32)[nH]1` [SU5416], the IC50 in data set [1] is 120 nM.

Turning to `Cc1ccc(C(=O)Nc2ccc(S(=O)(=O)O)c3cc(S(=O)(=O)O)cc(S(=O)(=O)O)c23)cc1NC(=O)c1cccc(NC(=O)Nc2cccc(C(=O)Nc3cc(C(=O)Nc4ccc(S(=O)(=O)O)c5cc(S(=O)(=O)O)cc(S(=O)(=O)O)c45)ccc3C)c2)c1` [Suramin], the “blood vessel formation (in words)” value in the data set with HuVECs was “can suppress blood vessel formation”. In the data set with HuVEC cells, the “cytotoxicity on HuVEC cells” value was “strong cytotoxicity”. The “effect on tube formation (in words)” value is on record as “almost no tube formation; also recorded: completely inhibited” in data set [2] (30 μM); “significant inhibition” in data set [2] (30 and 15 μM). The IC50 in data set [2] (Homo sapiens, HUVEC) is 16 µM. Moreover, the “% Inhibition of total tube length (mean ± SEM)” value in data set [2] (suramin concentration 1 (head prints μg/mL)) is reported as 3 ± 4%; in data set [2] (suramin concentration 3 (head prints μg/mL)), 4 ± 5%; in data set [2] (suramin concentration 10 (head prints μg/mL)), 8 ± 1%; in data set [2] (suramin concentration 15 (head prints μg/mL)) it was 42 ± 9^ab %; in data set [2] (suramin concentration 30 (head prints μg/mL)) it was 100 ± 0^a %. Further, in data set [2] (tube formation), the “MIC (minimum inhibitory concentration)” value is 15 µM (≈ 19.5 µg/mL).
